Measured values reported in US10681909B2, “Herbicidal triazoles” (FMC Corporation, priority 2014, dated 2020).

Tests used:
sedge, umbrella [1] = assay: Test C flooded paddy test; type: in vivo, Cyperus difformis; settings: Flood, applied to paddy water, rating after 13 to 15 d
From the text: (§1) At time of treatment, test pots were flooded to 3 cm above the soil surface, treated by application of test compounds directly to the paddy water, and then maintained at that water depth for the duration of the test. Treated plants and controls were maintained in a greenhouse for 13 to 15 d, after which time all species were compared to controls and visually evaluated. […] A dash (-) response means no test result.

velvetleaf [2] = assay: Test A preemergence; type: in vivo, Abutilon theophrasti; settings: 0 to 100 scale (0 no effect, 100 complete control)
Summary of the method: (§2)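 Test chemicals, formulated in a surfactant-containing non-phytotoxic solvent mixture, are applied either as a directed soil spray to newly planted seeds or as a postemergence application to plants at the one- to two-leaf stage (2–10 cm). All plants grow in a loam soil and sand blend.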

morningglory [3] = assay: Test A postemergence; type: in vivo, Ipomoea spp.; settings: 0 to 100 scale (0 no effect, 100 complete control), approx. 10 d
Summary of the method: as §2

foxtail, giant [4] = assay: Test A preemergence; type: in vivo, Setaria faberii; settings: 0 to 100 scale (0 no effect, 100 complete control)
Summary of the method: as §2

crabgrass, large [5] = assay: Test A postemergence; type: in vivo, Digitaria sanguinalis; settings: 0 to 100 scale (0 no effect, 100 complete control), approx. 10 d
Summary of the method: as §2

foxtail, giant [6] = assay: Test A postemergence; type: in vivo, Setaria faberii; settings: 0 to 100 scale (0 no effect, 100 complete control), approx. 10 d
Summary of the method: as §2

ducksalad [7] = assay: Test C flooded paddy test; type: in vivo, Heteranthera limosa; settings: Flood, applied to paddy water, rating after 13 to 15 d
From the text: as §1

corn [8] = assay: Test A preemergence; type: in vivo, Zea mays; settings: 0 to 100 scale (0 no effect, 100 complete control)
Summary of the method: as §2

morningglory [9] = assay: Test A preemergence; type: in vivo, Ipomoea spp.; settings: 0 to 100 scale (0 no effect, 100 complete control)
Summary of the method: as §2

pigweed [10] = assay: Test A preemergence; type: in vivo, Amaranthus retroflexus; settings: 0 to 100 scale (0 no effect, 100 complete control)
Summary of the method: as §2

barnyardgrass [11] = assay: Test A postemergence; type: in vivo, Echinochloa crus-galli; settings: 0 to 100 scale (0 no effect, 100 complete control), approx. 10 d
Summary of the method: as §2

crabgrass, large [12] = assay: Test A preemergence; type: in vivo, Digitaria sanguinalis; settings: 0 to 100 scale (0 no effect, 100 complete control)
Summary of the method: as §2

wheat [13] = assay: Test A preemergence; type: in vivo, Triticum aestivum; settings: 0 to 100 scale (0 no effect, 100 complete control)
Summary of the method: as §2

pigweed [14] = assay: Test A postemergence; type: in vivo, Amaranthus retroflexus; settings: 0 to 100 scale (0 no effect, 100 complete control), approx. 10 d
Summary of the method: as §2

wheat [15] = assay: Test A postemergence; type: in vivo, Triticum aestivum; settings: 0 to 100 scale (0 no effect, 100 complete control), approx. 10 d
Summary of the method: as §2

corn [16] = assay: Test A postemergence; type: in vivo, Zea mays; settings: 0 to 100 scale (0 no effect, 100 complete control), approx. 10 d
Summary of the method: as §2

velvetleaf [17] = assay: Test A postemergence; type: in vivo, Abutilon theophrasti; settings: 0 to 100 scale (0 no effect, 100 complete control), approx. 10 d
Summary of the method: as §2

barnyardgrass [18] = assay: Test A preemergence; type: in vivo, Echinochloa crus-galli; settings: 0 to 100 scale (0 no effect, 100 complete control)
Summary of the method: as §2

barnyardgrass [19] = assay: Test C flooded paddy test; type: in vivo, Echinochloa crus-galli; settings: Flood, applied to paddy water, rating after 13 to 15 d
From the text: as §1

rice [20] = assay: Test C flooded paddy test; type: in vivo, Oryza sativa; settings: Flood, applied to paddy water, rating after 13 to 15 d
From the text: as §1

sedge, umbrella [21] = assay: Test B flooded paddy test; type: in vivo, Cyperus difformis; settings: 250 g ai/ha, applied to paddy water at 2-leaf stage, visual rating after 13 to 15 d, scale 0 (no effect) to 100 (complete control)
Summary of the method: (§3)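 Pots were flooded to 3 cm above the soil at treatment, and compounds were applied directly into the paddy water. That depth was held throughout. After 13 to 15 d in a greenhouse, plants were rated visually against untreated controls.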

ducksalad [22] = assay: Test B flooded paddy test; type: in vivo, Heteranthera limosa; settings: 250 g ai/ha, applied to paddy water at 2-leaf stage, visual rating after 13 to 15 d, scale 0 (no effect) to 100 (complete control)
Summary of the method: as §3

barnyardgrass [23] = assay: Test B flooded paddy test; type: in vivo, Echinochloa crus-galli; settings: 250 g ai/ha, applied to paddy water at 2-leaf stage, visual rating after 13 to 15 d, scale 0 (no effect) to 100 (complete control)
Summary of the method: as §3

rice [24] = assay: Test B flooded paddy test; type: in vivo, Oryza sativa; settings: 250 g ai/ha, applied to paddy water at 2-leaf stage, visual rating after 13 to 15 d, scale 0 (no effect) to 100 (complete control)
Summary of the method: as §3

## Cc1nc(-c2ccc(C(F)(F)F)cc2)nn1Cc1cccc(OC(F)(F)F)c1 [Compound 4]
sedge, umbrella [1]; 31 g ai/ha
  Sedge, Umbrella plant response rating (0 to 100): 0
sedge, umbrella [1]; 62 g ai/ha
  Sedge, Umbrella plant response rating (0 to 100): 0
sedge, umbrella [1]; 125 g ai/ha
  Sedge, Umbrella plant response rating (0 to 100): 0
sedge, umbrella [1]; 250 g ai/ha
  Sedge, Umbrella plant response rating (0 to 100): 0
Velvetleaf [2]; 125 g ai/ha
  Plant response rating, Velvetleaf: 0
Velvetleaf [2]; 500 g ai/ha, approx. 10 d
  Plant response rating, Velvetleaf: 0
Morningglory [3]; 125 g ai/ha
  Plant response rating, Morningglory: 10
Morningglory [3]; 500 g ai/ha
  Plant response rating, Morningglory: 60
foxtail, giant [4]; 125 g ai/ha
  Plant response rating, Foxtail, Giant: 0
foxtail, giant [4]; 500 g ai/ha, approx. 10 d
  Plant response rating, Foxtail, Giant: 0
crabgrass, large [5]; 125 g ai/ha
  Plant response rating, Crabgrass, Large: 10
crabgrass, large [5]; 500 g ai/ha
  Plant response rating, Crabgrass, Large: 10
foxtail, giant [6]; 125 g ai/ha
  Plant response rating, Foxtail, Giant: 10
foxtail, giant [6]; 500 g ai/ha
  Plant response rating, Foxtail, Giant: 10
Ducksalad [7]; 31 g ai/ha
  Ducksalad plant response rating (0 to 100): 0
Ducksalad [7]; 62 g ai/ha
  Ducksalad plant response rating (0 to 100): 0
Ducksalad [7]; 125 g ai/ha
  Ducksalad plant response rating (0 to 100): 0
Ducksalad [7]; 250 g ai/ha
  Ducksalad plant response rating (0 to 100): 0
Corn [8]; 125 g ai/ha
  Plant response rating, Corn: 0
Corn [8]; 500 g ai/ha, approx. 10 d
  Plant response rating, Corn: 0
Morningglory [9]; 125 g ai/ha
  Plant response rating, Morningglory: 0
Morningglory [9]; 500 g ai/ha, approx. 10 d
  Plant response rating, Morningglory: 0
Pigweed [10]; 125 g ai/ha
  Plant response rating, Pigweed: 0
Pigweed [10]; 500 g ai/ha, approx. 10 d
  Plant response rating, Pigweed: 0
Barnyardgrass [11]; 125 g ai/ha
  Plant response rating, Barnyardgrass: 0
Barnyardgrass [11]; 500 g ai/ha
  Plant response rating, Barnyardgrass: 10
crabgrass, large [12]; 125 g ai/ha
  Plant response rating, Crabgrass, Large: 0
crabgrass, large [12]; 500 g ai/ha, approx. 10 d
  Plant response rating, Crabgrass, Large: 0
Wheat [13]; 125 g ai/ha
  Plant response rating, Wheat: 0
Wheat [13]; 500 g ai/ha, approx. 10 d
  Plant response rating, Wheat: 0
Pigweed [14]; 125 g ai/ha
  Plant response rating, Pigweed: 40
Pigweed [14]; 500 g ai/ha
  Plant response rating, Pigweed: 80
Wheat [15]; 125 g ai/ha
  Plant response rating, Wheat: 0
Wheat [15]; 500 g ai/ha
  Plant response rating, Wheat: 0
Corn [16]; 125 g ai/ha
  Plant response rating, Corn: 10
Corn [16]; 500 g ai/ha
  Plant response rating, Corn: 10
Velvetleaf [17]; 125 g ai/ha
  Plant response rating, Velvetleaf: 0
Velvetleaf [17]; 500 g ai/ha
  Plant response rating, Velvetleaf: 10
Barnyardgrass [18]; 125 g ai/ha
  Plant response rating, Barnyardgrass: 0
Barnyardgrass [18]; 500 g ai/ha, approx. 10 d
  Plant response rating, Barnyardgrass: 0
Barnyardgrass [19]; 31 g ai/ha
  Barnyardgrass plant response rating (0 to 100): 0
Barnyardgrass [19]; 62 g ai/ha
  Barnyardgrass plant response rating (0 to 100): 0
Barnyardgrass [19]; 125 g ai/ha
  Barnyardgrass plant response rating (0 to 100): 0
Barnyardgrass [19]; 250 g ai/ha
  Barnyardgrass plant response rating (0 to 100): 0
Rice [20]; 31 g ai/ha
  Rice plant response rating (0 to 100): 0
Rice [20]; 62 g ai/ha
  Rice plant response rating (0 to 100): 0
Rice [20]; 125 g ai/ha
  Rice plant response rating (0 to 100): 0
Rice [20]; 250 g ai/ha
  Rice plant response rating (0 to 100): 0

## CCCc1nc(-c2ccc(F)c(F)c2)nn1Cc1ccnc(C(F)(F)F)c1 [Compound 23]
sedge, umbrella [1]; 31 g ai/ha
  Sedge, Umbrella plant response rating (0 to 100): 80
sedge, umbrella [1]; 62 g ai/ha
  Sedge, Umbrella plant response rating (0 to 100): 85
sedge, umbrella [1]; 125 g ai/ha
  Sedge, Umbrella plant response rating (0 to 100): 90
sedge, umbrella [1]; 250 g ai/ha
  Sedge, Umbrella plant response rating (0 to 100): 95
sedge, umbrella [21]
  Plant response rating, Sedge, Umbrella, Flood: 95
Velvetleaf [2]; 125 g ai/ha
  Plant response rating, Velvetleaf: 30
Velvetleaf [2]; 500 g ai/ha, approx. 10 d
  Plant response rating, Velvetleaf: 80
Morningglory [3]; 125 g ai/ha
  Plant response rating, Morningglory: 50
Morningglory [3]; 500 g ai/ha
  Plant response rating, Morningglory: 90
foxtail, giant [4]; 125 g ai/ha
  Plant response rating, Foxtail, Giant: 100
foxtail, giant [4]; 500 g ai/ha, approx. 10 d
  Plant response rating, Foxtail, Giant: 100
crabgrass, large [5]; 125 g ai/ha
  Plant response rating, Crabgrass, Large: 70
crabgrass, large [5]; 500 g ai/ha
  Plant response rating, Crabgrass, Large: 90
Ducksalad [22]
  Plant response rating, Ducksalad, Flood: 90
foxtail, giant [6]; 125 g ai/ha
  Plant response rating, Foxtail, Giant: 70
foxtail, giant [6]; 500 g ai/ha
  Plant response rating, Foxtail, Giant: 90
Ducksalad [7]; 31 g ai/ha
  Ducksalad plant response rating (0 to 100): 30
Ducksalad [7]; 62 g ai/ha
  Ducksalad plant response rating (0 to 100): 45
Ducksalad [7]; 125 g ai/ha
  Ducksalad plant response rating (0 to 100): 75
Ducksalad [7]; 250 g ai/ha
  Ducksalad plant response rating (0 to 100): 80
Corn [8]; 125 g ai/ha
  Plant response rating, Corn: 20
Corn [8]; 500 g ai/ha, approx. 10 d
  Plant response rating, Corn: 30
Morningglory [9]; 125 g ai/ha
  Plant response rating, Morningglory: 50
Morningglory [9]; 500 g ai/ha, approx. 10 d
  Plant response rating, Morningglory: 80
Pigweed [10]; 125 g ai/ha
  Plant response rating, Pigweed: 100
Pigweed [10]; 500 g ai/ha, approx. 10 d
  Plant response rating, Pigweed: 100
Barnyardgrass [11]; 125 g ai/ha
  Plant response rating, Barnyardgrass: 50
Barnyardgrass [11]; 500 g ai/ha
  Plant response rating, Barnyardgrass: 70
crabgrass, large [12]; 125 g ai/ha
  Plant response rating, Crabgrass, Large: 100
crabgrass, large [12]; 500 g ai/ha, approx. 10 d
  Plant response rating, Crabgrass, Large: 100
Wheat [13]; 125 g ai/ha
  Plant response rating, Wheat: 20
Wheat [13]; 500 g ai/ha, approx. 10 d
  Plant response rating, Wheat: 40
Pigweed [14]; 125 g ai/ha
  Plant response rating, Pigweed: 100
Pigweed [14]; 500 g ai/ha
  Plant response rating, Pigweed: 100
Wheat [15]; 125 g ai/ha
  Plant response rating, Wheat: 30
Wheat [15]; 500 g ai/ha
  Plant response rating, Wheat: 50
Corn [16]; 125 g ai/ha
  Plant response rating, Corn: 30
Corn [16]; 500 g ai/ha
  Plant response rating, Corn: 60
Velvetleaf [17]; 125 g ai/ha
  Plant response rating, Velvetleaf: 70
Velvetleaf [17]; 500 g ai/ha
  Plant response rating, Velvetleaf: 100
Barnyardgrass [23]
  Plant response rating, Barnyardgrass, Flood: 90
Barnyardgrass [18]; 125 g ai/ha
  Plant response rating, Barnyardgrass: 50
Barnyardgrass [18]; 500 g ai/ha, approx. 10 d
  Plant response rating, Barnyardgrass: 100
Barnyardgrass [19]; 31 g ai/ha
  Barnyardgrass plant response rating (0 to 100): 0
Barnyardgrass [19]; 62 g ai/ha
  Barnyardgrass plant response rating (0 to 100): 10
Barnyardgrass [19]; 125 g ai/ha
  Barnyardgrass plant response rating (0 to 100): 15
Barnyardgrass [19]; 250 g ai/ha
  Barnyardgrass plant response rating (0 to 100): 20
Rice [20]; 31 g ai/ha
  Rice plant response rating (0 to 100): 0
Rice [20]; 62 g ai/ha
  Rice plant response rating (0 to 100): 0
Rice [20]; 125 g ai/ha
  Rice plant response rating (0 to 100): 0
Rice [20]; 250 g ai/ha
  Rice plant response rating (0 to 100): 0
Rice [24]
  Plant response rating, Rice, Flood: 25
